The source of these data is publication PMC6107127, “Characteristics of the mitochondrial and cellular uptake of MPP^+, as probed by the fluorescent mimic, 4'I-MPP^+” (PLoS ONE, 2018).

In data set [1] the test system is isolated intact MN9D mitochondria. Nature of the data set: Effects of Ca2+ and inhibitors on MN9D mitochondrial uptake of 4'I-MPP+. The arrangement: species or system mouse. As to the method:
Intact MN9D cell mitochondria were incubated with 200 μM 4'I-MPP^+ for 45 min at 37 °C in 0, 500 or 1000 nM Ca^2+ containing KCl buffer. When mNCX inhibitors (KBR7943, 2APB and CGP37157) were used, mitochondrial suspensions were initially incubated with 10, 25 or 50 μM inhibitor in KCl buffer for 10 min at 37 °C and then with 200 μM 4'I- MPP^+ for 45 min at 37 °C. After the incubations, samples were centrifuged at 7,000 x g at 4 °C for 10 min and the mitochondrial pellets were treated with 75 μL of 0.1 M HClO4. […] To visualize the effect of CGP37157 on the mitochondrial uptake of 4'I-MPP^+ in live cells, HepG2 cells grown in glass-bottomed plates were incubated with 50 μM CGP37157 for 30 min initially and then with 100 μM 4'I-MPP^+ and 200 nM MitoTracker Green FM in KRB-HEPES for 1 h at 37 °C. After incubation cells were washed and reconstituted with KRB-HEPES, pH 7.4 and 4'I-MPP^+ and MitoTracker Green FM fluorescence images of cells were recorded as detailed above. Controls were treated under the same experimental conditions, except that CGP37157 was omitted from the initial incubation.
S4 Fig. Effects of Benzamil, Verapamil, FFA, and ruthenium red on the MN9D mitochondrial uptake of 4'I-MPP+. MN9D mitochondrial suspensions were initially incubated with a 50 μM concentration of the desired agent (10 μM Ruthenium red) in KCl buffer for 10 min at 37 °C and then incubated with 200 μM 4'I-MPP+ for 45 min at 37 °C. After the incubations, the […] 4'I-MPP+ contents were quantified by RP-HPLC-UV as described in Material and methods. The data are represented as mean ± S.D (n=3).
(also on this page, place not known: contol 10uM Ru red BenzamilVerapamil FFA 4I' MPP+ uptake (nmoles/mg) 0.0 0.1 0.2 0.3 0.4 0.5)
(1 picture or pasted object on this page, not shown here)

For data set [2], the system named is rat brain mitochondrial complex-I (NADH: ubiquinone oxidoreductase). Nature of the data set: Ubiquinone dependent NADH oxidation (complex-I inhibition). It is filed as biochemical. The note with it: 10 μM. As to the method: Isolated rat brain mitochondria were lysed by freeze-thawing in hypotonic media containing 25 mM K3PO4 and 5 mM MgCl2, pH 7.2 [22]. The complex-I (i.e. NADH: ubiquinone oxidoreductase) activity of mitochondrial membrane fragments were determined according to the procedure of Birch-Machin and Turnbull. Briefly, mitochondrial membranes (50 μg protein) were incubated with 130 μM NADH (final concentration) and Antimycine A (2 μg/mL) in a 1.0 mL assay solution containing 25 mM K3PO4, 5 mM MgCl2, 2 mM KCN, 2.5 mg/mL bovine serum albumin, pH 7.2, for 2 min at 37 °C with or without rotenone, MPP^+ or 4'I-MPP^+ (for further details see the corresponding figure legends). The complex-I mediated ubiquinone dependent NADH oxidation was initiated by adding ubiquinone-1 to a final concentration of 65 μM and the initial rates of the reactions were monitored by following the decrease in absorbance at 340 nm with respect to 425 nm reference wavelength for 5 min.

Data set [3] can be described thus: Relative HPLC elution times and hydrophobicities. In kind it is physicochemical.
The test system of data set [4] is HepG2 cells. Nature of the data set: Effect of CGP37157 and KBR7943 on 4'I-MPP+-mediated mitochondrial membrane depolarization (TMRM). The following applies: 50 μM pre-treatment 30 min, 100 μM 4'I-MPP+. It is filed as cell-based, human. As to the method: HepG2 cells grown in glass-bottomed plates for two days were treated with 50 μM CGP37157 or KBR7943 in KRB-HEPES for 30 min followed by 50 nM TMRM in KRB-HEPES for 45 min. Then plates were mounted on the stage of the microscope and mitochondrial membrane depolarization upon the treatment with 100 μM 4'I-MPP^+ was measured as a function of time as detailed above. The effect of CGP37157 on the 4'I-MPP^+ mediated mitochondrial membrane depolarization at longer time periods was monitored by observing the reduction of TMRM fluorescence from 0 to 4 h incubations in the presence or absence of CGP37157. HepG2 cells were incubated with or without 10 μM CGP37157 followed by 50 nM TMRM, and finally with 4'I-MPP^+ (100 μM, 0 or 4 h) and the intracellular TMRM fluorescence was recorded. Controls were carried out using an identical protocol except that either CGP37157 or 4'I-MPP^+ were omitted from the incubation media.

[5] abbreviates: 50 μM agent, 200 μM 4'I-MPP+ (S4 Fig).
Where [6] appears, read: 50 μM inhibitor at 200 μM 4'I-MPP+.

The structures appear in SMILES notation.

Regarding `COc1ccc(CCN(C)CCCC(C#N)(c2ccc(OC)c(OC)c2)C(C)C)cc1OC` (stereo not shown) [verapamil], the “effect on uptake of 4'I-MPP+” value in data set [1] (setting [5]) is “no significant effect”.
Still for that read-out and setting: the entry for `NC(=NCc1ccccc1)NC(=O)c1nc(Cl)c(N)nc1N` [benzamil] is “no significant effect”.
As for `C=C(C)[C@H]1Cc2c(ccc3c2O[C@@H]2COc4cc(OC)c(OC)cc4[C@@H]2C3=O)O1` [rotenone], the “inhibition of NADH oxidation (complex-I) activity” value in data set [2] is given as “about 90%”.
Consider `C[n+]1ccc(-c2ccc(Cl)cc2)cc1` [4Cl' MPP^+], for which the “relative elution time (hydrophobicity)” value was determined as 8.66 in data set [3] (Buffer:CH3CN 70:30), 7.08 in data set [3] (Buffer:CH3CN:MeOH 60:30:10) and 9.17 in data set [3] (Buffer:CH3CN:MeOH 65:25:10).
For the compound `C[n+]1ccc(-c2ccc(Br)cc2)cc1` [4Br' MPP^+], the “relative elution time (hydrophobicity)” value in data set [3] (Buffer:CH3CN 70:30) was determined as 9.67; in data set [3] (Buffer:CH3CN:MeOH 60:30:10) it was 7.74; in data set [3] (Buffer:CH3CN:MeOH 65:25:10), 10.30.
With `N=C(N)SCCc1ccc(OCc2ccc([N+](=O)[O-])cc2)cc1` [KBR7943], the “effect on uptake of 4'I-MPP+” value in data set [1] (setting [6]) is given as “inhibit the uptake”. Besides, the “effect on 4'I-MPP+ mitochondrial membrane depolarization” value in data set [4] is recorded as “significantly reduced”.
As for `N.N.N.N.N.N.N.N.N.N.N.N.N.N.[Cl-].[Cl-].[Cl-].[Cl-].[Cl-].[Cl-].[O-2].[O-2].[Ru+3].[Ru+3].[Ru+4]` [ruthenium red], in data set [1] (10 μM ruthenium red, 200 μM 4'I-MPP+), the “inhibition of 4'I-MPP+ uptake” value is ~ 10%.
`C[n+]1ccc(-c2ccc(F)cc2)cc1` [4F' MPP^+]: the “relative elution time (hydrophobicity)” value in data set [3] (Buffer:CH3CN 70:30) was determined as 6.44; in data set [3] (Buffer:CH3CN:MeOH 60:30:10), 5.68; in data set [3] (Buffer:CH3CN:MeOH 65:25:10), 6.60.
For `NCCOB(c1ccccc1)c1ccccc1` [2APB], the “effect on uptake of 4'I-MPP+” value in data set [1] (setting [6]) was “inhibit the uptake”.
